# Reference: patent US6841533B1, “Conformationally constrained backbone cyclized interleukin-6 antagonists” (Peptor Limited, priority 1995, dated 2005)
# Numbered stars: 1 amine (or outer) side, 2 acyl side, 3 side chain; on linkers, the order of the positions; unused ones are H or OH. Bridge positions count the residues as written; N and C are the ends. Square brackets hold non-standard residues; d marks the D form. Ends that are not written are not given here. Peptide text beside a SMILES is read from it. ξ: configuration not given here. TrpN2 = Trp building unit for backbone cyclization, bridging arm N2; Ala(Nα-(CH2)3CO) = C[C@@H](C(=O)[*:2])N(CCCC(=O)[*:3])[*:1]; Ala(Nα-(CH2)3NH) = C[C@@H](C(=O)[*:2])N(CCCN[*:3])[*:1]; Phe(4-NO2) = N[C@@H](Cc1ccc([N+](=O)[O-])cc1)C(=O)O; 4Pal = N[C@@H](Cc1ccncc1)C(=O)O; ξY = NC(Cc1ccc(O)cc1)C(=O)O; LysC3 = not defined here; Orn = NCCC[C@H](N)C(=O)O
# Experiments:
# [1] = tested on: TF1 cells maintained with IL-6; experiment: Bioassay using TF1 cells maintained with IL-6; format: cell-based, human; design: TF1: unit not given here; settings: for Inhibition of IL-6 activity (%), Experiment 24, WST, IL-6 / Inhibition of IL-6 activity (%), Experiment 24, 3H-T, IL-6: cells with IL-6; for Inhibition of IL-6 activity (%), Experiment 24, 3H-T, IL-6: Experiment 24, thymidine incorporation; for TF1: MPS crude peptides, Table 6; for specificity of inhibition, IL-6 versus GM-CSF maintained TF1 cells: in words, Table 7 and FIG. 4
# Text: TF1 cells (human erythroleukemia) cells require IL-6 for growth and thus inhibition of IL-6 bioactivity results in cell death, similar to T1165 cells. The origin of all relevant molecules is human.
# (§1) The problem associated with toxicity (false positive results), could be overcome in the TF1 based assay since these cells can be induced by additional cytokines which are unrelated to IL-6 (not using the gp130 signal transducer). It, is possible to induce the cells to grow with IL-6 and with additional cytokine e.g. GM-CSF. Specific inhibition of IL-6 bioactivity is therefore expected to register only in cells induced by IL-6 and not with GM-CSF. […] Assay procedure is based on the procedure described in Fourcin et al. (ibid). The amount of viable cells at the end of the assay is determined by staining the cells with WST reagent as well as by measuring thymidine corporation (^3H-T).
# The libraries were screened for binding of soluble IL-6. The information obtained was used for synthesis of backbone cyclic peptides in MPS format. Analyses for biological activity were performed on the TF1 human cell line.
# (§2) Since the endpoint of the bioassay used is cell death, there is a need to check the specificity of the killing action, and to examine whether the cell death is due to inhibition of the IL-6 signaling pathway. The peptide analogs were therefore analyzed for their ability to induce non-specific cell death when the same cells were maintained with GM-CSF (instead of IL-6) as growth factor.
# [2] = tested on: TF1 cells maintained with GM-CSF; experiment: Selectivity bioassay using TF1 cells maintained with GM-CSF; format: cell-based, human; settings: for Inhibition (%), Experiment 24, 3H-T, GM-CSF: Experiment 24, thymidine incorporation
# Text: as §1, §2
# B16.F10.9 melanoma cells = settings: for B16F10.9 active at: theoretical crude concentration, MPS peptides
# Text: The F10.9 sub-line of B16 (murine melanoma) expresses gp130 but not IL-6R. Addition of human IL-6 and human IL-6R, or a chimera of IL-6/IL-6R results in differentiation which is associated with growth arrest of the cells. Inhibition of IL-6 results in continued growth. Since the end point of this assay is cell growth rather than cell death, this assay system was used primarily in order to differentiate between suspected toxic effects observed on B9 or T1165 cells, and true inhibition of IL-6 activity.
# Evaluation of the results in this assay is possible using two methods. One method uses vital dyes for monitoring cell growth. The second method comprises visual observation of the cell morphology and establishing a cut off point based on the following observations:
# Cells which are not treated with IL-6 create a monolayer that covers almost all the surface area. Treatment with IL-6 causes growth arrest and a morphological change: the cells become very narrow and elongated as compared to the more spread out shape of the non-treated cells.
# Peptides were added to B16.F10.9 melanoma cells in the presence of 200 ng/ml IL-6 and 125 ng/ml sIL-6R. Incubation for three days.
Compound,"Inhibition of IL-6 activity (%), Experiment 23, WST, a [1] [%]","Inhibition of IL-6 activity (%), Experiment 23, WST, b [1] [%]","Inhibition of IL-6 activity (%), Experiment 24, WST, IL-6 [1] [%]","Inhibition of IL-6 activity (%), Experiment 24, 3H-T, IL-6 [1] [%]","Inhibition (%), Experiment 24, WST, GM-CSF [2] [%]","Inhibition (%), Experiment 24, 3H-T, GM-CSF [2] [%]",TF1 [1],B16F10.9 active at (B16.F10.9 melanoma cells),"specificity of inhibition, IL-6 versus GM-CSF maintained TF1 cells [1]",IC50 in the B16F10.9 cell assay (B16.F10.9 melanoma cells),"concentration that fully blocks IL-6 activity (B16.F10.9 melanoma cells; 200 ng/ml IL-6 and 125 ng/ml sIL-6R, three days, FIG. 2)"
(D)Bip-(D)LysC3-Orn-Lys-AsnN2-Arg-NH2 [Peptide 20],37,56,49,78,−59,−42,–,–,–,–,–
C[C@@H](C(N)=O)N1CCCNC(=O)CCCN(C(=O)[C@@H](Cc2ccccc2)NC(=O)[C@H](CCCNC(=N)N)NC(=O)[C@H](CCCCN)NC(=O)[C@H](CCCNC(=N)N)NC(=O)[C@H](N)CCCCN)[C@@H](C)C(=O)N[C@@H](CCCCN)C(=O)N[C@H](CCCNC(=N)N)C(=O)N[C@H](Cc2ccc(O)cc2)C1=O [(D)Lys-Arg-Lys-Arg-(D)Phe-AlaC3-Lys-(D)Arg-(D)Tyr-AlaN3] (H-[dK]RKR[dF][Ala(Nα-(CH2)3CO)]K[dR][dY][Ala(Nα-(CH2)3NH)]-NH2; lactam 6-10),–,–,–,–,–,–,17,62 µM,–,–,–
CC(C)C[C@H]1NC(=O)[C@H](C)N(C(=O)[C@H](Cc2ccccc2)NC(=O)[C@@H](CCCNC(=N)N)NC(=O)[C@H](CCCCN)NC(=O)[C@H](CCCNC(=N)N)NC(=O)[C@H](N)CCCCN)CCCC(=O)NCCCN([C@@H](C)C(N)=O)C(=O)[C@H](Cc2ccc(O)cc2)NC(=O)[C@H](CCCNC(=N)N)NC1=O [(D)Lys-Arg-Lys-(D)Arg-Phe-AlaC3-(D)Leu-Arg-Tyr-AlaN3] (H-[dK]RK[dR]F[Ala(Nα-(CH2)3CO)][dL]RY[Ala(Nα-(CH2)3NH)]-NH2; lactam 6-10),–,–,–,–,–,–,3,62 µM,–,–,–
(D)Lys-Arg-Lys-Arg-Phe-AlaC3-Leu-Arg-(D)Tyr-AlaN3,–,–,–,–,–,–,25,not active,–,–,–
C[C@@H](C(N)=O)N1CCCNC(=O)CCCN(C(=O)[C@H](Cc2ccccc2)NC(=O)[C@H](CCCNC(=N)N)NC(=O)[C@H](CCCCN)NC(=O)[C@H](CCCNC(=N)N)NC(=O)[C@@H](N)CCCCN)[C@@H](C)C(=O)N[C@@H](CCCCN)C(=O)N[C@H](CCCNC(=N)N)C(=O)NC(Cc2ccc(O)cc2)C1=O (stereo partly drawn) [Lys-Arg-Lys-Arg-Phe-AlaC3-Lys-(D)Arg-BTyr-AlaN3] (H-KRKRF[Ala(Nα-(CH2)3CO)]K[dR][ξY][Ala(Nα-(CH2)3NH)]-NH2; lactam 6-10),–,–,–,–,–,–,21,62 µM,–,–,–
(D)Bip-(D)LysC3-4PyrAla-Orn-TrpN2-(p-NO2)Phe-NH2 [Peptide 41],96,100,95,101,25,−13,–,–,clearly specific to the IL-6 pathway,–,–
CC(C)C[C@@H]1NC(=O)[C@H](C)N(C(=O)[C@H](Cc2ccccc2)NC(=O)[C@@H](CCCNC(=N)N)NC(=O)[C@H](CCCCN)NC(=O)[C@H](CCCNC(=N)N)NC(=O)[C@@H](N)Cc2c[nH]c3ccccc23)CCCC(=O)NCCCN([C@@H](C)C(N)=O)C(=O)C(Cc2ccc(O)cc2)NC(=O)[C@H](CCCNC(=N)N)NC1=O (stereo partly drawn) [Trp-Arg-Lys-(D)Arg-Phe-AlaC3-Leu-Arg-BTyr-AlaN3] (H-WRK[dR]F[Ala(Nα-(CH2)3CO)]LR[ξY][Ala(Nα-(CH2)3NH)]-NH2; lactam 6-10; C-terminus assumed),–,–,–,–,–,–,32,<12 µM,–,–,–
Lys(ZCL)-GlyC2-Dab-(D)Glu-(D)AlaN3-(D)Trp-NH2 [Peptide 57],122,114,121,114,48,102,–,–,–,–,–
"CC(C)C[C@H](NC(=O)[C@H](CCCNC(=N)N)NC(=O)[C@@H](N)Cc1ccc(O)cc1)C(=O)N[C@@H](CCCNC(=N)N)C(=O)N[C@@H](Cc1ccccc1)C(=O)N1CCCC(=O)NCCCN([C@@H](C)C(=O)N[C@@H](C)C(=O)N[C@@H](CCC(=O)O)C(N)=O)C(=O)[C@H](Cc2ccc(O)cc2)NC(=O)[C@H](CCCNC(=N)N)NC(=O)[C@H](CC(C)C)NC(=O)[C@@H]1C [PTR 5037, Tyr-Arg-Leu-Arg-Phe-AlaC3-Leu-Arg-Tyr-AlaN3-Ala-Glu] (H-YRLRF[Ala(Nα-(CH2)3CO)]LRY[Ala(Nα-(CH2)3NH)]AE-NH2; lactam 6-10; N-terminus and C-terminus assumed)",–,–,–,–,–,–,–,–,–,around 20 μg/ml,–
Trp-Arg-Lys-(D)Arg-Phe-AlaC3-Leu-Arg-Tyr-AlaN3-NH2 [PTR 5049],–,–,–,–,–,–,–,–,–,–,not active
LysC4-Lys-(D)Arg-Lys-TrpN3-Gln-NH2 [Peptide 33],116,119,112,113,39,70,–,–,–,–,–
Lys-TrpC2-(D)Arg-Lys-TrpN3-Gln-NH2 [Peptide 34],97,108,96,106,−27,3,–,–,clearly specific to the IL-6 pathway,–,–
(D)Bip-(D)LysC2-Lys-Lys(ZCl)-(D)TrpN2-Abu-NH2 [Peptide 88],96,98,112,114,103,115,–,–,–,–,–
Dab-TrpC2-Dpr-Arg(MTR)-(D)AlaN3-Glu-NH2 [Peptide 83],2,4,31,51,−5,12,–,–,–,–,–
(D)PheC2-(D)Cit-Dpr-HomArg-(D)GlnN2-(D)Gln-NH2 [Peptide 17],50,44,67,80,−23,−30,–,–,–,–,–
(D)Bip-GlyC2-Dab-(D)Glu-(D)AlaN3-Abu-NH2 [Peptide 91],98,106,123,113,45,75,–,–,–,–,–
Gln-GlyC2-(D)Dab-Arg(MTR)-TrpN2-Trp-NH2 [Peptide 61],54,58,86,58,4,−49,–,–,–,–,–
"LysC3-Lys-4PyrAla-Orn-TrpN2-(p-NO2)Phe-NH2 ([LysC3]K[4Pal][Orn][TrpN2][Phe(4-NO2)]-NH2; bridge 1-5; reading uncertain; also: backbone cyclization, places not given here, printed as LysC3-Lys-4PyrAla-Orn-TrpN2-(p-NO2)Phe-NH2) [Peptide 40]",42,72,43,61,−45,−63,–,–,–,–,–
(D)PheC2-(D)Bip-Arg-Lys-(D)TrpN2-Gln-NH2 [Peptide 81],38,46,92,93,43,27,–,–,–,–,–
Lys(ZCL)-AlaC2-Dab-(D)Glu-(D)AlaN3-(D)Trp-NH2 [Peptide 25],54,54,77,104,−49,26,–,–,–,–,–
